Values quoted from earlier work in paper PMC7870075, “Physicochemical properties and formulation development of a novel compound inhibiting Staphylococcus aureus biofilm formation” (PLoS ONE, 2021).

Set-up: method as in PMID 23433668
Settings: cited from earlier work

C=CCn1c(NCC)nc2c(c1=O)C(C)(C)Cc1cc(OC)ccc1-2 [CCG-203592]
half-life in mouse liver microsomes (t1/2): 48 s
